From PubChem BioAssay AID1259407 (Chemical Carcinogenesis Research Information System (CCRIS), 2018)
Activity calls are given as the source filed them. How the calls were made is not given here.

Tested on: CCRIS mutagenicity, Ames/micronucleus/aberration tests
Test: CCRIS mutagenicity studies
[1] = Test System: AMES SALMONELLA TYPHIMURIUM, Strain/Indicator: TA97, Metabolic Activation: NONE, Method: PREINCUBATION
[2] = Test System: AMES SALMONELLA TYPHIMURIUM, Strain/Indicator: TA98, Metabolic Activation: NONE, Method: PREINCUBATION
[3] = Test System: AMES SALMONELLA TYPHIMURIUM, Strain/Indicator: TA100, Metabolic Activation: NONE, Method: PREINCUBATION
[4] = Test System: AMES SALMONELLA TYPHIMURIUM, Strain/Indicator: TA1535, Metabolic Activation: NONE, Method: PREINCUBATION

CN(C)c1ccc(N=Nc2ccccc2)cc1
mutagenic call (End Point: IN VIVO CHROMOSOMAL ABERRATIONS, Test System: BONE MARROW CELLS, Species: MOUSE, Strain/Sex: SWISS ALBINO, Route: DIET): active; positive (% of aberrations increased with time) | mutagenic call (End Point: IN VIVO MICRONUCLEUS, Test System: BONE MARROW CELL ERYTHROCYTES, Species: MOUSE, Strain/Sex: SWISS ALBINO, Route: DIET): active; positive (% micronuclei increased with time) | mutagenic call (End Point: IN VIVO MICRONUCLEUS, Test System: HEPATOCYTES, Species: RAT, Strain/Sex: FISHER 344 OR SD/MALE, Route: ORAL OR IP): active; positive | mutagenic call (End Point: IN VIVO MICRONUCLEUS, Test System: PERIPHERAL BLOOD RETICULOCYTES, Species: RAT, Strain/Sex: FISHER 344 OR SD/MALE, Route: ORAL OR IP): active; positive | mutagenic call (End Point: In vivo micronucleus, Test System: Micronucleated hepatocytes, Species: Rat, Strain/Sex: F344/Male, Route: Oral): active; positive (highest dose only; p<0.05) | mutagenic call (Test System: AMES SALMONELLA TYPHIMURIUM, Strain/Indicator: TA97, Metabolic Activation: HAMSTER, LIVER, S-9, AROCLOR 1254 (10%), Method: PREINCUBATION): inactive; negative | mutagenic call [1]: inactive; negative | mutagenic call (Test System: AMES SALMONELLA TYPHIMURIUM, Strain/Indicator: TA97, Metabolic Activation: RAT, LIVER, S-9, AROCLOR 1254 (10%), Method: PREINCUBATION): inactive; negative | mutagenic call (Test System: AMES SALMONELLA TYPHIMURIUM, Strain/Indicator: TA98, Metabolic Activation: HAMSTER, LIVER, S-9, AROCLOR 1254 (10%), Method: PREINCUBATION): active; positive | mutagenic call [2]: inactive; negative | mutagenic call (Test System: AMES SALMONELLA TYPHIMURIUM, Strain/Indicator: TA98, Metabolic Activation: RAT, LIVER, S-9, AROCLOR 1254 (10%), Method: PREINCUBATION): inactive; negative | mutagenic call (Test System: AMES SALMONELLA TYPHIMURIUM, Strain/Indicator: TA98, Metabolic Activation: RAT, LIVER, S-9, AROCLOR 1254, Method: STANDARD PLATE): active; positive | mutagenic call (Test System: AMES SALMONELLA TYPHIMURIUM, Strain/Indicator: TA98, Metabolic Activation: RAT, LIVER, S-9, AROCLOR, Method: PREINCUBATION): active; positive | mutagenic call (Test System: AMES SALMONELLA TYPHIMURIUM, Strain/Indicator: TA98, Metabolic Activation: RAT, LIVER, S-9, AROCLOR, Method: STANDARD PLATE): active; positive | mutagenic call (Test System: AMES SALMONELLA TYPHIMURIUM, Strain/Indicator: TA98, Metabolic Activation: RAT, LIVER, S-9, KC500 OR PHENOBARBITAL, Method: LIQUID SUSPENSION): active; positive | mutagenic call (Test System: AMES SALMONELLA TYPHIMURIUM, Strain/Indicator: TA100, Metabolic Activation: HAMSTER, LIVER, S-9, AROCLOR 1254 (5%), Method: PREINCUBATION): inactive; negative | mutagenic call (Test System: AMES SALMONELLA TYPHIMURIUM, Strain/Indicator: TA100, Metabolic Activation: HAMSTER, LIVER, S-9, AROCLOR 1254 (10%), Method: PREINCUBATION): inactive; negative | mutagenic call (Test System: AMES SALMONELLA TYPHIMURIUM, Strain/Indicator: TA100, Metabolic Activation: HAMSTER, LIVER, S-9, AROCLOR 1254 (30%), Method: PREINCUBATION): active; positive | mutagenic call [3]: inactive; negative | mutagenic call (Test System: AMES SALMONELLA TYPHIMURIUM, Strain/Indicator: TA100, Metabolic Activation: RAT, LIVER, S-9, AROCLOR 1254 (5 OR 30%), Method: PREINCUBATION): inactive; negative | mutagenic call (Test System: AMES SALMONELLA TYPHIMURIUM, Strain/Indicator: TA100, Metabolic Activation: RAT, LIVER, S-9, AROCLOR 1254, Method: STANDARD PLATE): active; positive | mutagenic call (Test System: AMES SALMONELLA TYPHIMURIUM, Strain/Indicator: TA100, Metabolic Activation: RAT, LIVER, S-9, KC500 OR PHENOBARBITAL, Method: LIQUID SUSPENSION): active; positive | mutagenic call (Test System: AMES SALMONELLA TYPHIMURIUM, Strain/Indicator: TA1535, Metabolic Activation: HAMSTER, LIVER, S-9, AROCLOR 1254 (10%), Method: PREINCUBATION): inactive; negative | mutagenic call [4]: inactive; negative | mutagenic call (Test System: AMES SALMONELLA TYPHIMURIUM, Strain/Indicator: TA1535, Metabolic Activation: RAT, LIVER, S-9, AROCLOR 1254 (10%), Method: PREINCUBATION): inactive; negative | mutagenic call (Test System: CHINESE HAMSTER V-79, Strain/Indicator: V-79/6-THIOGUANINE, Metabolic Activation: NONE, Method: SUSPENSION/PLATE): inactive; negative | mutagenic call (Test System: CHINESE HAMSTER V-79, Strain/Indicator: V-79/6-THIOGUANINE, Metabolic Activation: RAT, LIVER, S-9, PHENOBARBITAL AND BETA-NAPHTHOFLAVONE, Method: SUSPENSION/PLATE): inactive; negative | mutagenic call (Test System: E. COLI, Strain/Indicator: WP2 UVRA, Metabolic Activation: HAMSTER, LIVER, S-9, AROCLOR 1254, Method: STANDARD PLATE): inactive; negative | mutagenic call (Test System: E. COLI, Strain/Indicator: WP2 UVRA, Metabolic Activation: HAMSTER, LIVER, S-9, Method: STANDARD PLATE): inactive; negative | mutagenic call (Test System: E. COLI, Strain/Indicator: WP2 UVRA, Metabolic Activation: MOUSE, LIVER, S-9, AROCLOR 1254, Method: STANDARD PLATE): inactive; negative | mutagenic call (Test System: E. COLI, Strain/Indicator: WP2 UVRA, Metabolic Activation: MOUSE, LIVER, S-9, Method: STANDARD PLATE): inactive; negative | mutagenic call (Test System: E. COLI, Strain/Indicator: WP2 UVRA, Metabolic Activation: NONE, Method: STANDARD PLATE): inactive; negative | mutagenic call (Test System: E. COLI, Strain/Indicator: WP2 UVRA, Metabolic Activation: RAT, LIVER, S-9, AROCLOR 1254, Method: STANDARD PLATE): inactive; negative | mutagenic call (Test System: E. COLI, Strain/Indicator: WP2 UVRA, Metabolic Activation: RAT, LIVER, S-9, Method: STANDARD PLATE): inactive; negative | mutagenic call (Test System: MOUSE LYMPHOMA, Strain/Indicator: L5178Y (TK+/TK-), Metabolic Activation: NONE, Method: SUSPENSION/PLATE): inactive; negative | mutagenic call (Test System: MOUSE LYMPHOMA, Strain/Indicator: L5178Y (TK+/TK-), Metabolic Activation: RAT, LIVER, S-9, AROCLOR 1254, Method: SUSPENSION/PLATE): active; positive

NCCS(=O)(=O)O
mutagenic call (Test System: AMES SALMONELLA TYPHIMURIUM, Strain/Indicator: TA97, Metabolic Activation: HAMSTER, LIVER, S-9, AROCLOR 1254 (10 OR 30%), Method: PREINCUBATION): inactive; negative | mutagenic call [1]: inactive; negative | mutagenic call (Test System: AMES SALMONELLA TYPHIMURIUM, Strain/Indicator: TA97, Metabolic Activation: RAT, LIVER, S-9, AROCLOR 1254 (10 OR 30%), Method: PREINCUBATION): inactive; negative | mutagenic call (Test System: AMES SALMONELLA TYPHIMURIUM, Strain/Indicator: TA98, Metabolic Activation: HAMSTER, LIVER, S-9, AROCLOR 1254 (10 OR 30%), Method: PREINCUBATION): inactive; negative | mutagenic call [2]: inactive; negative | mutagenic call (Test System: AMES SALMONELLA TYPHIMURIUM, Strain/Indicator: TA98, Metabolic Activation: RAT, LIVER, S-9, AROCLOR 1254 (10 OR 30%), Method: PREINCUBATION): inactive; negative | mutagenic call (Test System: AMES SALMONELLA TYPHIMURIUM, Strain/Indicator: TA100, Metabolic Activation: HAMSTER, LIVER, S-9, AROCLOR 1254 (10 OR 30%), Method: PREINCUBATION): inactive; negative | mutagenic call [3]: inactive; negative | mutagenic call (Test System: AMES SALMONELLA TYPHIMURIUM, Strain/Indicator: TA100, Metabolic Activation: RAT, LIVER, S-9, AROCLOR 1254 (10 OR 30%), Method: PREINCUBATION): inactive; negative | mutagenic call (Test System: AMES SALMONELLA TYPHIMURIUM, Strain/Indicator: TA1535, Metabolic Activation: HAMSTER, LIVER, S-9, AROCLOR 1254 (10 OR 30%), Method: PREINCUBATION): inactive; negative | mutagenic call [4]: inactive; negative | mutagenic call (Test System: AMES SALMONELLA TYPHIMURIUM, Strain/Indicator: TA1535, Metabolic Activation: RAT, LIVER, S-9, AROCLOR 1254 (10 OR 30%), Method: PREINCUBATION): inactive; negative

CC(=O)[C@H]1CC[C@H]2[C@@H]3C=CC4=CC(=O)CC[C@@]4(C)[C@@H]3CC[C@]12C
mutagenic call (End Point: IN VIVO MICRONUCLEUS, Test System: HEPATOCYTES, Species: RAT, Strain/Sex: SPRAGUE-DAWLEY/FEMALE, Route: INTRAGASTRIC (GAVAGE)): inactive; negative

Cc1ccccc1N=Nc1ccc(N=Nc2c(O)ccc3ccccc23)c(C)c1
mutagenic call (Test System: AMES SALMONELLA TYPHIMURIUM, Strain/Indicator: TA98, Metabolic Activation: HAMSTER, LIVER, S-9, Method: PREINCUBATION (PRIVAL METHOD)): active; positive | mutagenic call (Test System: AMES SALMONELLA TYPHIMURIUM, Strain/Indicator: TA98, Metabolic Activation: NONE, Method: STANDARD PLATE): inactive; negative | mutagenic call (Test System: AMES SALMONELLA TYPHIMURIUM, Strain/Indicator: TA100, Metabolic Activation: NONE, Method: STANDARD PLATE): inactive; negative
